According to patent publication US10426841B2, “Combination of drugs with protein-binding prodrugs” (VERGELL MEDICAL S.A., priority 2010, dated 2019):

Tests used:
[1] = test system: human ovarian cancer xenografts (A2780); assay: Antitumor efficacy and tolerability in the ovarian carcinoma A2780 xenograft model; settings: for toxic death: 8 mice per group; for RTV day 30 (relative tumor volume): * significant to Doxorubicin; for antitumor efficacy (in words): doxorubicin 2×8 mg/kg up to day 30
Experimental: In order to evaluate the in vivo antitumor efficacy of a combination of doxorubicin with DOXO-EMCH in tumor-bearing mice, a direct comparison was made with a group treated with doxorubicin (2×8 mg/kg body weight) or DOXO-EMCH (3×24 mg/kg body weight doxorubicin equivalents) at their respective MTDs. For the combination, a lower dose of doxorubicin (3×4 mg/kg body weight) was combined with a lower dose of DOXO-EMCH (3×12 mg/kg body weight doxorubicin equivalents) wherein the DOXO-EMCH was administered 6 h prior to doxorubicin on the respective days of administration (cf. Table 1).
Experimental Procedure. […] For in vivo testing, female NMRI: nu/nu mice (Taconic, Denmark) were used. The mice were held in individually ventilaged cages (IVC) under sterile and standardized environmental conditions (25±2° C. room temperature, 50±10% relative humidity, 12 hour light-dark-rhythm). They received autoclaved food and bedding (ssniff, Soest, Germany) and acidified (pH 4.0) drinking water ad libitum. A2780 tumor fragments were transplanted subcutaneously (s.c.) into the left flank region of anaesthetized mice (40 mg/kg i.p. Radenarkon, Asta Medica, Frankfurt, Germany) on day 0. Mice were randomly distributed to the experimental groups (8 mice per group). When the tumors were grown to a palpable size, treatment was initiated. Mice were treated intravenously (i.v.) with either glucose phosphate buffer (10 mM sodium phosphate, 5% D-(+)-glucose, pH 5.8), doxorubicin (2×8 mg/kg body weight), or DOXO-EMCH (3×24 mg/kg body weight doxorubicin equivalents), or a combination of DOXO-EMCH (3×12 mg/kg body weight doxorubicin equivalents) and doxorubicin (3×4 mg/kg body weight) with a 6 hour interval on the day of administration. DOXO-EMCH was dissolved in 10 mM sodium phosphate, 5% D-(+)-glucose, pH 5.8. The compounds were injected intravenously at weekly intervals on days 6 and 13 and on days 6, 13 and 20 for the remaining compounds. The injection volume was 0.2 ml/20 g body weight. Tumor size was measured twice weekly with a caliper-like instrument in two dimensions. Individual tumor volumes (V) were calculated by the formula V=(length×[width]2)/2 and related to the values on the first day of treatment (relative tumor volume, RTV). Statistical analysis was performed with the U-test (Mann and Whitney) with p<0.05. The body weight of mice was determined every 3 to 4 days.

[2] = Maximum tolerated dose in nude mice; type: in vivo; settings: 2×12 mg/kg body weight
[3] = i.v., doxorubicin 8 mg/kg days 6, 13, DOXO-EMCH 24 mg/kg days 6, 13, 20, combination 4 + 12 mg/kg days 6, 13, 20
[4] = DOXO-EMCH 3×24 mg/kg, combination DOXO-EMCH 3×12 + doxorubicin 3×4 mg/kg

Row | SMILES | toxic death [1, 3] | body weight loss ([1]; DOXO-EMCH 3×24 mg/kg, after day 37, some animals died or were killed) | duration of tumor remissions [1, 4] | RTV day 20 (relative tumor volume) [1, 3] | RTV day 30 (relative tumor volume) [1, 3] | BWC [%] (body weight change) ([1]; day of value in brackets in the cell, i.v., doxorubicin 8 mg/kg days 6, 13, DOXO-EMCH 24 mg/kg days 6, 13, 20, combination 4 + 12 mg/kg days 6, 13, 20) | antitumor efficacy (in words) [1, 4] | toxicity at doses higher than MTD [2]
1 | COc1cccc2c1C(=O)c1c(O)c3c(c(O)c1C2=O)CC(O)(C(CO)=NNC(=O)CCCCCN1C(=O)C=CC1=O)CC3OC1CC(N)C(O)C(C)O1 (stereo not drawn) [DOXO-EMCH, 6-maleimidocaproyl(hydrazone) derivative of doxorubicin] | 0 | over 30% | up to 37 days | 0.2 | 0.1* | −31 (d37) % | pronounced antitumor effect | 
2 | COc1cccc2c1C(=O)c1c(O)c3c(c(O)c1C2=O)C[C@@](O)(C(=O)CO)C[C@@H]3O[C@H]1C[C@H](N)[C@H](O)[C@H](C)O1 [Doxorubicin, doxorubicin, reference compound] | 0 |  |  | 7.4 | 23.9 |  | moderate antitumor efficacy | unacceptable toxicity and mortality
